# In PubChem BioAssay (NCI):
#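 Grown in 96-well plates, cells were treated for 48 hours with each compound at five concentrations. Insufficient inhibition: endpoint recorded as highest concentration tested. TGI: concentration producing complete growth inhibition.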
# What was measured:
# Experiment in all cases: NCI anticancer screen, dose series, 48 h
# [1] = tested on: ACHN renal
# [2] = tested on: MDA-MB-231 breast
# [3] = tested on: SR leukemia
# [4] = tested on: SW-620 colon
# [5] = tested on: OVCAR-8 ovarian
# [6] = tested on: UO-31 renal
# [7] = tested on: T-47D breast
# [8] = tested on: NCI/ADR-RES ovarian
# [9] = tested on: EKVX NSCLC
# [10] = tested on: HL-60(TB) leukemia
# [11] = tested on: SF-268 CNS
# [12] = tested on: COLO 205 colon
# [13] = tested on: SNB-75 CNS
# [14] = tested on: HCT-116 colon
# [15] = tested on: OVCAR-3 ovarian
# [16] = tested on: UACC-257 melanoma
# [17] = tested on: HOP-92 NSCLC
# [18] = tested on: PC-3 prostate
# [19] = tested on: A498 renal
# [20] = tested on: BT-549 breast
Structure (SMILES),TGI [1] [µM],TGI [2] [µM],TGI [3] [µM],TGI [4] [µM],TGI [5] [µM],TGI [6] [µM],TGI [7] [µM],TGI [8] [µM],TGI [9] [µM],TGI [10] [µM],TGI [11] [µM],TGI [12] [µM],TGI [13] [µM],TGI [14] [µM],TGI [15] [µM],TGI [16] [µM],TGI [17] [µM],TGI [18] [µM],TGI [19] [µM],TGI [20] [µM]
O/N=C1/CCCc2nonc21,> 100,> 100,> 100,> 100,> 100,> 100,> 100,> 100,> 100,> 100,> 100,> 100,> 100,> 100,> 100,> 100,> 100,> 100,,
O=c1ccn(/C=C/C(O)C(O)CO)c(=O)[nH]1 (stereo not given),> 100,,,> 100,> 100,> 100,,,> 100,> 100,> 100,> 100,> 100,> 100,> 100,> 100,,,> 100,
C=C(C)CCC1CC=[N+]([O-])OC1C(C)(C)C (stereo not given),> 100,66.8,> 100,> 100,> 100,85.7,90.1,67.3,> 100,27.2,> 100,> 100,> 100,> 100,> 100,> 100,> 100,,> 100,
O=[N+]([O-])/C=C/c1cn(CCCCCCCCCCCCn2cc(/C=C/[N+](=O)[O-])c3ccccc32)c2ccccc12,> 100,> 100,> 100,> 100,> 100,> 100,,> 100,> 100,> 100,,> 100,,> 100,> 100,> 100,> 100,> 100,> 100,> 100
CC(C)N(C(=O)C12C3C4C1C1C2C3C41C(=O)N(C(C)C)C(C)C)C(C)C (stereo not given),> 50,,,> 50,> 50,> 50,,,> 50,> 50,> 50,> 50,> 50,> 50,> 50,> 50,,,> 50,
S=C(N/N=C/c1ccccn1)N1CCCCCC1,1.53,,0.93,> 100,12.7,4.76,,0.105,4.04,,,,0.987,,9.3,0.169,> 100,> 100,0.735,22.6
CN(C)CC(/C(Cc1ccccc1)=N\NC(=S)NN)c1ccccc1 (stereo not given),> 100,,> 100,> 100,> 100,> 100,,,,> 100,> 100,> 100,> 100,> 100,> 100,> 100,> 100,,,
CSc1ccc2c(cc1=O)C(NC(=O)c1ccc(C#N)cc1)CCc1cc(O)c(O)c(O)c1-2 (stereo not given),> 100,,48.7,37.7,99.7,> 100,,,> 100,51.9,> 100,38.6,14.6,32.5,> 100,37,,,> 100,
Nc1ccc(-c2nc3ccc(F)cc3s2)cc1I,> 100,> 100,> 100,> 100,> 100,> 100,,> 100,> 100,,> 100,> 100,> 76.1,> 100,,> 100,> 100,> 100,> 100,> 100
COc1ccc(C(=O)Oc2c(C#N)sc3c2c(=O)n(-c2ccccc2)c(=S)n3-c2ccccc2)cc1,> 100,> 100,,> 100,> 100,3.94,> 100,52,31.3,49.7,> 100,80.4,> 100,48.9,97.4,> 100,67.5,98.7,41.4,
O=C(CC(=O)c1ccccc1)C(=O)Nc1ccc(Cl)cc1,> 100,,> 100,> 60.2,> 100,> 100,,,> 100,> 100,> 100,> 66.1,> 100,> 61.5,> 100,> 100,> 100,,> 100,
Nc1nc2c(ncn2CCCC(c2ccccc2)P(=O)(O)O)c(=O)[nH]1 (stereo not given),> 100,,,> 100,> 100,> 100,,,> 100,> 100,> 100,> 100,> 100,> 100,> 100,> 100,> 100,,,
C/C(N=NS(=O)(=O)c1ccc(C)cc1)=C1\C=CC=CN1O,> 100,,> 100,> 100,> 100,> 100,,,> 100,> 100,> 100,,> 100,> 100,> 100,> 100,> 100,,> 100,
CS(=O)(=O)C1(Br)S(=O)(=O)OCCOS1(=O)=O,> 100,,> 100,> 100,> 100,> 100,,,> 100,> 100,> 100,> 100,> 100,> 100,> 100,> 100,> 100,,> 100,
O=C(O)C12CC3CC(CC(F)(C3)C1)C2,> 100,,,> 100,> 100,> 100,,,> 100,> 100,,> 100,> 100,> 100,> 100,> 100,> 100,,> 100,
